Legend:
Assay type in all cases: in vivo
soybean plants = assay: Growth of young soybean plants treated with clomazone versus untreated plants
Method: (§1) Sugarcane plants are treated by the application of a commercially available concentrate formulation of clomazone (Centium 360 CS®; a suspension concentrate of microencapsulated clomazone at a concentration of 360 g/l). The concentrate formulation is dispersed in water and diluted, in a manner conventional in the art, to give an aqueous spray composition. The spray composition is applied to the sugarcane plants in an amount to apply clomazone at a rate of 120 g/hectare.
Young soybean plants are treated in an analogous manner to that described in Example 1.
The growth of the soybean plants is monitored and compared with the growth of soybean plants of the same age and grown under the same conditions, but without treatment with clomazone.

potato plants = assay: Growth of young potato plants treated with clomazone versus untreated plants
Method: as §1
Young potato plants are treated in an analogous manner to that described in Example 1.
The growth of the potato plants is monitored and compared with the growth of potato plants of the same age and grown under the same conditions, but without treatment with clomazone.

rice plants = assay: Growth of young rice plants treated with clomazone versus untreated plants
Method: as §1
Young rice plants are treated in an analogous manner to that described in Example 1.
The growth of the rice plants is monitored and compared with the growth of rice plants of the same age and grown under the same conditions, but without treatment with clomazone.

sugarcane plants = assay: Growth of sugarcane plants treated with clomazone versus untreated plants
Method: as §1
The growth of the sugarcane plants is monitored and compared with the growth of sugarcane plants grown under the same conditions, but without treatment with clomazone.

oilseed rape plants = assay: Growth of young oilseed rape plants treated with clomazone versus untreated plants
Method: as §1
Young oilseed rape plants are treated in an analogous manner to that described in Example 1.
The growth of the oilseed rape plants is monitored and compared with the growth of oilseed rape plants of the same age and grown under the same conditions, but without treatment with clomazone.

[1] = treated analogously to Example 1
[2] = treated analogously to Example 1, versus untreated plants
[3] = clomazone 120 g/hectare spray, versus untreated plants

## CC1(C)CON(Cc2ccccc2Cl)C1=O [clomazone, 2-(2-chlorophenyl)methyl-4,4-dimethyl-3-isoxazolidinone]
Soybean plants; [1]
  growth of the treated plants in comparison to the untreated plants: significantly improved
Soybean plants; [2]
  average height: greater
  average leaf blade area: larger
  shoot growth: increased
Potato plants; [1]
  growth of the treated plants in comparison to the untreated plants: significantly improved
Potato plants; [2]
  average height: greater
  average leaf blade area: larger
  shoot growth: increased
Rice plants; [1]
  growth of the treated plants in comparison to the untreated plants: significantly improved
Rice plants; [2]
  average height: greater
  average leaf blade area: larger
  shoot growth: increased
Sugarcane plants; Centium 360 CS diluted in water, sprayed, clomazone 120 g/hectare
  growth of the treated plants in comparison to the untreated plants: significantly improved
Sugarcane plants; [3]
  average height: greater
  average leaf blade area: larger
  shoot growth: increased
Oilseed rape plants; [1]
  growth of the treated plants in comparison to the untreated plants: significantly improved
Oilseed rape plants; [2]
  average height: greater
  average leaf blade area: larger
  shoot growth: increased
